pIC50: −log10 of the molar value.
test system: SARS-CoV-2; experiment: Antiviral activity against SARS CoV-2 infected in african green monkey Vero E6 cells assessed as inhibition of viral growth preincubated with cells for 1 hr followed by viral addition for 1 hr with subsequent compound washout and measured after 24 hrs of compound replacement by qRT-PCR analysis; format: functional, organism-based; conditions: Severe acute respiratory syndrome coronavirus 2, Vero C1008

Compound	pIC50
CNc1ccc2cc1Oc1ccc(cc1)C[C@H]1c3c(cc(OC)c(OC)c3Oc3cc4c(cc3OC)CCN(C)[C@@H]4C2)CCN1C	< 5.30
COc1ccc(NC(=O)c2ccc3cc2Oc2ccc(cc2)C[C@H]2c4c(cc(OC)c(OC)c4Oc4cc5c(cc4OC)CCN(C)[C@@H]5C3)CCN2C)cc1	6.21
COc1cc2c3cc1Oc1c(OC)c(OC)cc4c1[C@H](Cc1ccc(cc1)Oc1cc(ccc1C(=O)O)C[C@H]3N(C)CC2)N(C)CC4	< 5.30
COc1cc2c3cc1Oc1c(OC)c(OC)cc4c1[C@H](Cc1ccc(cc1)Oc1cc(ccc1C(=O)NC1CCCC1)C[C@H]3N(C)CC2)N(C)CC4	5.83
COc1cc2c3cc1Oc1c(OC)c(OC)cc4c1[C@H](Cc1ccc(cc1)Oc1cc(cc(N)c1O)C[C@H]3N(C)CC2)N(C)CC4	< 5.30
COc1cc2c3cc1Oc1c(OC)c(OC)cc4c1[C@H](Cc1ccc(cc1)Oc1cc(cc([N+](=O)[O-])c1)C[C@H]3N(C)CC2)N(C)CC4	6.14
COc1cc2c3cc1Oc1c(OC)c(OC)cc4c1[C@H](Cc1ccc(cc1)Oc1cc(ccc1C(=O)N1CCCCC1)C[C@H]3N(C)CC2)N(C)CC4	5.80
COc1cc2c3cc1Oc1c(OC)c(OC)cc4c1[C@H](Cc1ccc(cc1)Oc1cc(ccc1C(=O)Nc1ccc(C(F)(F)F)cc1)C[C@H]3N(C)CC2)N(C)CC4	5.56
COc1cc2c3cc1Oc1c(OC)c(OC)cc4c1[C@H](Cc1ccc(cc1)Oc1cc(ccc1N)C[C@H]3N(C)CC2)N(C)CC4	< 5.30
COc1cc2c3cc1Oc1c(OC)c(OC)cc4c1[C@H](Cc1ccc(cc1)Oc1cc(ccc1C(=O)NC1CC1)C[C@H]3N(C)CC2)N(C)CC4	6.05
CNC(=O)c1ccc2cc1Oc1ccc(cc1)C[C@H]1c3c(cc(OC)c(OC)c3Oc3cc4c(cc3OC)CCN(C)[C@@H]4C2)CCN1C	5.60
COc1cc2c3cc1Oc1c(OC)c(OC)cc4c1[C@H](Cc1ccc(cc1)Oc1cc(ccc1C)C[C@H]3N(C)CC2)N(C)CC4	5.61
COc1cc2c3cc1Oc1c(OC)c(OC)cc4c1[C@H](Cc1ccc(cc1)OC1C=C(Cc5[nH]c(=O)oc51)C[C@H]3N(C)CC2)N(C)CC4 (stereo not given in full)	6.17
COc1cc2c3cc1Oc1c(OC)c(OC)cc4c1[C@H](Cc1ccc(cc1)Oc1cc(ccc1C(=O)NCCOCCO)C[C@H]3N(C)CC2)N(C)CC4	5.56
COc1cc2c3cc1Oc1c(OC)c(OC)cc4c1[C@H](Cc1ccc(cc1)Oc1cccc(c1)C[C@H]3N(C)CC2)N(C)CC4	6.03
COC(=O)c1ccc2cc1Oc1ccc(cc1)C[C@H]1c3c(cc(OC)c(OC)c3Oc3cc4c(cc3OC)CCN(C)[C@@H]4C2)CCN1C	6.08
COc1cc2c3cc1Oc1c(OC)c(OC)cc4c1[C@H](Cc1ccc(cc1)Oc1cc(ccc1O)C[C@H]3N(C)CC2)N(C)CC4 [AROMOLINE]	4.84
COc1cc2c3cc1Oc1c(OC)c(OC)cc4c1[C@H](Cc1ccc(cc1)Oc1cc(ccc1C(C)=O)C[C@H]3N(C)CC2)N(C)CC4	5.83
COc1cc2c3cc1Oc1c(OC)c(OC)cc4c1[C@H](Cc1ccc(cc1)Oc1cc(ccc1C(=O)NC15CC6CC(CC(C6)C1)C5)C[C@H]3N(C)CC2)N(C)CC4	5.97
C=CC(=O)Nc1ccc2cc1Oc1ccc(cc1)C[C@H]1c3c(cc(OC)c(OC)c3Oc3cc4c(cc3OC)CCN(C)[C@@H]4C2)CCN1C	5.73
COc1cc2c3cc1Oc1c(OC)c(OC)cc4c1[C@H](Cc1ccc(cc1)Oc1cc(ccc1C(=O)NC1CCC1)C[C@H]3N(C)CC2)N(C)CC4	6.28
COc1cc2c3cc1Oc1c(OC)c(OC)cc4c1[C@H](Cc1ccc(cc1)Oc1cc(cc([N+](=O)[O-])c1O)C[C@H]3N(C)CC2)N(C)CC4	< 5.30
COc1cc2c3cc1Oc1c(OC)c(OC)cc4c1[C@H](Cc1ccc(cc1)Oc1cc(ccc1C(=O)Nc1ccccc1)C[C@H]3N(C)CC2)N(C)CC4	5.55
COc1cc2c3cc1Oc1c(OC)c(OC)cc4c1[C@H](Cc1ccc(cc1)Oc1cc(ccc1C(N)=O)C[C@H]3N(C)CC2)N(C)CC4	6.26
COc1cc2c3cc1Oc1c(OC)c(OC)cc4c1[C@H](Cc1ccc(cc1)Oc1cc(ccc1NCc1ccccc1)C[C@H]3N(C)CC2)N(C)CC4	< 5.30
C=C(C)c1ccc2cc1Oc1ccc(cc1)C[C@H]1c3c(cc(OC)c(OC)c3Oc3cc4c(cc3OC)CCN(C)[C@@H]4C2)CCN1C	5.96
COc1cc2c3cc1Oc1c(OC)c(OC)cc4c1[C@H](Cc1ccc(cc1)Oc1cc(ccc1C(=O)NC(C)C)C[C@H]3N(C)CC2)N(C)CC4	5.99
COc1cc2c3cc1Oc1c(OC)c(OC)cc4c1[C@H](Cc1ccc(cc1)Oc1cc(ccc1C1CC1)C[C@H]3N(C)CC2)N(C)CC4	5.59
CCCCCNC(=O)c1ccc2cc1Oc1ccc(cc1)C[C@H]1c3c(cc(OC)c(OC)c3Oc3cc4c(cc3OC)CCN(C)[C@@H]4C2)CCN1C	5.60
COc1cc2c3cc1Oc1c(OC)c(OC)cc4c1[C@H](Cc1ccc(cc1)Oc1cc(ccc1C(=O)Nc1cccnc1)C[C@H]3N(C)CC2)N(C)CC4	6.03

From ChEMBL document CHEMBL6074634, “Design, synthesis, and evaluation of novel oxyacanthine derivatives for anti-SARS-CoV-2 activity” (Bioorg Med Chem Lett, 2024)
